Ki data for two compounds are collected here from BindingDB's records for patent US10479784 (VERTEX PHARMACEUTICALS INCORPORATED, 2019).

The test concerns the target Serine/threonine-protein kinase ATR (Homo sapiens, UniProt Q13535). The test is described as follows: Inhibition Assay. As for the experimental part:
Compounds were screened for their ability to inhibit ATR kinase using a radioactive-phosphate incorporation assay. Assays were carried out in a mixture of 50 mM Tris/HCl (pH 7.5), 10 mM MgCl2 and 1 mM DTT. Final substrate concentrations were […] (3mCi 33P ATP/mmol ATP, Perkin Elmer) and 800 μM target peptide ([…]).Assays were carried out at 25° C. in the presence of 5 nM full-length ATR. An assay stock buffer solution was prepared containing all of the reagents listed above, with the exception of ATP and the test compound of interest. […] The plate was pre-incubated for 10 minutes at 25° C. and the reaction initiated by addition of 15 μL [γ-33P]ATP (final concentration 10 μM).The reaction was stopped after […] by the addition of 30 μL 0.1M phosphoric acid containing 2 mM ATP. A multiscreen phosphocellulose filter 96-well plate (Millipore, Cat no. MAPHN0B50) was pretreated with 100 μL 0.2M phosphoric acid prior to the addition of 45 μL of the stopped assay mixture.

A value given as a limit tells only on which side of the number the result lay.

Serine/threonine-protein kinase ATR, sequence (Q13535 whole entry): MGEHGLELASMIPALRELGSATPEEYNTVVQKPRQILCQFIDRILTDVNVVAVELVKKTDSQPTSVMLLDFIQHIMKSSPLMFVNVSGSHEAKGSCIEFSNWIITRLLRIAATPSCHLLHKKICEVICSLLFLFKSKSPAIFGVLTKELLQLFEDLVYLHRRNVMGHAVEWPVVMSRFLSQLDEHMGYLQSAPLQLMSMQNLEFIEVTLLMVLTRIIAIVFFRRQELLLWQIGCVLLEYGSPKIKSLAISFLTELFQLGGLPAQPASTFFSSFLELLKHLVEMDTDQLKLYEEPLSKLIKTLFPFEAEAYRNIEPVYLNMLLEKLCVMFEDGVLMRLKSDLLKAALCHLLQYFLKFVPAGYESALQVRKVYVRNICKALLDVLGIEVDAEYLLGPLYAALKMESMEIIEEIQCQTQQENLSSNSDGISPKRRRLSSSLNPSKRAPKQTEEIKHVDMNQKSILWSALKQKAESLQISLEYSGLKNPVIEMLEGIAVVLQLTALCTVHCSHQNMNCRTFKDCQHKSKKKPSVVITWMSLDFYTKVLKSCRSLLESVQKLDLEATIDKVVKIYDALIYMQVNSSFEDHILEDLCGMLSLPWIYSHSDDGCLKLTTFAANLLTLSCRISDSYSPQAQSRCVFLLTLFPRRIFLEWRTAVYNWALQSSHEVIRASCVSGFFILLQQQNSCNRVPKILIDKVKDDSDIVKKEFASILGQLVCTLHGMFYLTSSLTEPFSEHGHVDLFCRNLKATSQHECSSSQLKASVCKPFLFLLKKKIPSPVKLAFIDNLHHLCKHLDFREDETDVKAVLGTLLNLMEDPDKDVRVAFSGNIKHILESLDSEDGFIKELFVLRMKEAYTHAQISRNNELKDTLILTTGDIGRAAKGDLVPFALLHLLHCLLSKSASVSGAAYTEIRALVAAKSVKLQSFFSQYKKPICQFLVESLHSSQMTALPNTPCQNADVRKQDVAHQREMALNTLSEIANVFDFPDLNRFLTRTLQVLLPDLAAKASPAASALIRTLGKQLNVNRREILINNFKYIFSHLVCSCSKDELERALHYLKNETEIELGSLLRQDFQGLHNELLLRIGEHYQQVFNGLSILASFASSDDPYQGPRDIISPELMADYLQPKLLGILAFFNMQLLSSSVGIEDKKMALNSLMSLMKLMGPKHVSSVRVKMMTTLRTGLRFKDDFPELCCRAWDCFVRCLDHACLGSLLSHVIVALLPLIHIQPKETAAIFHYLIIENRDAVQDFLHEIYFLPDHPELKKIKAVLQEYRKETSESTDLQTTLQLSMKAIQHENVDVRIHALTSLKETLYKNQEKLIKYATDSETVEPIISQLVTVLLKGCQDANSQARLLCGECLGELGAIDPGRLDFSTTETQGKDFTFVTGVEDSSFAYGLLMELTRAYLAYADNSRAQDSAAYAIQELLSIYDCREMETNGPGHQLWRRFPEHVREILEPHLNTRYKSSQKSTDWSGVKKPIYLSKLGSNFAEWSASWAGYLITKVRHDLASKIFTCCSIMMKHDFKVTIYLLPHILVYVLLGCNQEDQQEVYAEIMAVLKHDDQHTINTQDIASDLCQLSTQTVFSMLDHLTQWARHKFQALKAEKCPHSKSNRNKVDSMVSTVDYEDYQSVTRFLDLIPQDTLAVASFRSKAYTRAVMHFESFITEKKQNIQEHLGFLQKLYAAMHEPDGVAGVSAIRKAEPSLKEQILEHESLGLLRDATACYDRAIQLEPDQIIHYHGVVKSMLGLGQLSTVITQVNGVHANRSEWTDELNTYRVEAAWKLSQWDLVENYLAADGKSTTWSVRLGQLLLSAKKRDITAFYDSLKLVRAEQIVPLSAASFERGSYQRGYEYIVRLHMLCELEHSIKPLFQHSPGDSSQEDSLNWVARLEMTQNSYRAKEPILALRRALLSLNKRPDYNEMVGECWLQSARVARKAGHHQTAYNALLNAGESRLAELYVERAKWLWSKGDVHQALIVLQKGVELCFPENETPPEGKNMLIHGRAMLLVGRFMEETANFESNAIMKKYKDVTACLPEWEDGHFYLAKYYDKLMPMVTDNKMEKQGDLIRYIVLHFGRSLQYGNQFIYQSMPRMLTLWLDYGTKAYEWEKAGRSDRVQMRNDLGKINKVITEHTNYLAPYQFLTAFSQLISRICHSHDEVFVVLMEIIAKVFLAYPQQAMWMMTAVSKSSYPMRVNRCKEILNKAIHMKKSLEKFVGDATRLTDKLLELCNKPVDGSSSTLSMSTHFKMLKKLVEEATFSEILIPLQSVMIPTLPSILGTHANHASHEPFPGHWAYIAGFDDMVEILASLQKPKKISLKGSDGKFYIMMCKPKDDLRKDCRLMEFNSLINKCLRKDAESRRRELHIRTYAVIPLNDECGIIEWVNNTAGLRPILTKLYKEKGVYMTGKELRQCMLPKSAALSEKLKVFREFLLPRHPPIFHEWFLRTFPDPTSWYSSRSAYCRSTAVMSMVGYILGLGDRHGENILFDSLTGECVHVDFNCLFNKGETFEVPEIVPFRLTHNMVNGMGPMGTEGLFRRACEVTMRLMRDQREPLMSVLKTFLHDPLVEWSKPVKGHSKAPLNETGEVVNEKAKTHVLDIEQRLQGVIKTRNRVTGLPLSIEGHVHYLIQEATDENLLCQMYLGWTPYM

For orientation: Ki means the dissociation constant of the complex between target and ligand, obtained from inhibition or displacement. Lower therefore signals tighter binding. As for `CNCc1ccc(C(=N)OC(=N)c2nc(-c3ccc([S+]([O-])C(C)CCOC)cc3)cnc2N)c(F)c1` (configuration not stated) [US10479784, Compound IA-332], the inhibition constant Ki is under 10 nM.

Consider `CNCc1ccc(C(=N)OC(=N)c2nc(-c3ccc(S(=O)(=O)C(C)C)c(OC(F)(F)F)c3)cnc2N)cc1` [US10479784, Compound IA-290], for which the inhibition constant (Ki) is under 10 nM.
